Measurements reported in PubChem BioAssay (NCI).
Values joined by “and” are separate entries in the source; they are usually repeats but may differ in a detail not shown here. Equal values may be shown once.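 Test compounds were applied to cells in 96-well plates for 48 hours at 5 doses. Abbreviation: GI50, concentration required for 50% inhibition of growth. TGI: total growth inhibition.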 Where a SMILES comes first, the peptide text is derived from it. [ ]: non-standard residue; d: D form. The star is where a group is joined. ξ: configuration not given here. ξD = NC(CC(=O)O)C(=O)O; Ac3c = NC1(C(=O)O)CC1; Boc = CC(C)(C)OC(=O)*; OBn = c1ccc(CO*)cc1

Assays:
Assay in all cases: DTP human tumour cell line panel, 48 h
[1] = tested on: HCT-116 colon
[2] = tested on: HCT-15 colon
[3] = tested on: HOP-62 NSCLC
[4] = tested on: LOX IMVI melanoma
[5] = tested on: MDA-MB-435
[6] = tested on: SW-620 colon
[7] = tested on: U251 CNS
[8] = tested on: UACC-62 melanoma
[9] = tested on: HCC-2998 colon

Row | SMILES | TGI [1] | TGI [2] | TGI [3] | TGI [4] | TGI [5] | TGI [6] | TGI [7] | TGI [8] | TGI [9] | GI50 [2] | GI50 [3] | GI50 [7] | GI50 [8] | GI50 [9] | GI50 [1] | GI50 [4] | GI50 [5] | GI50 [6]
1 | C1#Cc2ccccc2OCCOc2ccccc2C#Cc2ccccc2OCCOc2ccccc21 | > 100 µM | > 100 µM | 23.2 µM | 33.4 µM | > 100 µM | > 100 µM | 28.1 µM | > 100 µM |  |  |  |  |  |  |  |  |  | 
2 | CCOC(=O)CCc1c(C(=O)OCC)[nH]c(/C=C2\NC(=O)C(C)=C2CC)c1C | > 100 µM | > 100 µM | 27.6 µM | > 100 µM | > 100 µM |  | 33.9 µM | 44.9 µM |  |  |  |  |  |  |  |  |  | 
3 | Cn1c(-c2ccc[se]2)ccc1-c1ccc(CO)[se]1 | > 100 µM | > 63.8 µM |  | > 64.1 µM | > 67.7 µM | > 100 µM | 15.8 µM | > 100 µM | 19.3 µM |  |  |  |  |  |  |  |  | 
4 | Cc1cn(CC2=NCCCN2)c(=O)[nH]c1=O | > 100 µM | > 100 µM | > 100 µM | > 100 µM |  | > 100 µM | > 100 µM | > 100 µM | > 100 µM |  |  |  |  |  |  |  |  | 
5 | C[C@H](CC[C@@H](O)C(C)(C)O)[C@H]1CC[C@@]2(C)[C@@H]3CC=C4[C@@H](CC[C@H](O)C4(C)C)[C@]3(C)C(=O)C[C@]12C | > 50 µM | > 50 µM | > 50 µM | > 50 µM | > 50 µM | > 50 µM | > 50 µM |  |  |  |  |  |  |  |  |  |  | 
6 | C=CCN(c1cc(OCc2ccccc2)c(NC(C)=O)cc1[N+](=O)[O-])S(C)(=O)=O | > 100 µM | > 100 µM | 53 µM | > 100 µM | > 100 µM | > 100 µM |  | > 100 µM | > 100 µM |  |  |  |  |  |  |  |  | 
7 | Cc1cc(Nc2ccc(N=Nc3ccc(O)c4ncccc34)cc2)nc(C)n1 | 44.6 µM | 36 µM | > 69.6 µM | 43.8 µM | 29.6 µM | > 66.5 µM | 33.4 µM | 24.6 µM |  |  |  |  |  |  |  |  |  | 
8 | O=C(NC1(C(=O)NNc2nnc(-c3ccccc3)c(-c3ccccc3)n2)C(c2ccccc2)C(c2ccccc2)=NN1c1ccccc1)c1ccccc1 (centres undefined) | > 100 µM | > 100 µM | > 100 µM |  | > 100 µM | > 100 µM | > 100 µM | > 100 µM | > 100 µM |  |  |  |  |  |  |  |  | 
9 | C=C(CC(=O)Nc1ccc(C(=O)OC)o1)C(=O)OC | 76.7 µM | 59.1 µM | > 100 µM | > 100 µM | 59 µM | 53.5 µM | > 100 µM | 72.4 µM |  |  |  |  |  |  |  |  |  | 
10 | CCOC(=O)c1c2c(n3ccc(NC(=O)OC(C)(C)C)cc13)C(=O)c1ncccc1C2=O |  | 1.49 µM | 0.7 µM |  |  |  | 1.25 µM | 0.639 µM |  | 0.0195 µM | 0.143 µM | 0.0465 µM | 0.138 µM |  |  |  |  | 
11 | NC(c1ccccc1)(C(F)(F)F)P1(=O)OC(=O)c2ccccc2O1 (centres undefined) | > 100 µM | > 100 µM | > 100 µM |  | > 100 µM | > 100 µM | > 100 µM | > 100 µM | > 100 µM |  |  |  |  |  |  |  |  | 
12 | CCN(CC)C(=S)N/N=C/c1ccccn1 |  | > 100 µM |  | 0.27 µM | > 100 µM | > 100 µM | > 100 µM | 0.392 µM | > 100 µM |  |  |  |  |  |  |  |  | 
13 | O=c1[nH]c(=O)n(COCc2ccccc2)c2ccc(Br)cc12 | > 100 µM | > 100 µM |  | > 100 µM | > 100 µM | > 100 µM | > 100 µM | > 100 µM |  |  |  |  |  |  |  |  |  | 
14 | Cc1ccc(-n2c(O)c3c(N)n[nH]c3c(C#N)c2=O)cc1 | > 100 µM | > 100 µM |  | > 100 µM | > 100 µM | > 100 µM | > 100 µM | > 100 µM | > 100 µM |  |  |  |  |  |  |  |  | 
15 | COC(=O)C1(NC(=O)C(CC(=O)OCc2ccccc2)NC(=O)OC(C)(C)C)CC1 (centres undefined) (Boc-[ξD](OBn)-[Ac3c]-OMe) | > 100 µM | > 100 µM | > 100 µM | > 100 µM | > 100 µM | > 100 µM | > 100 µM | 91.7 µM |  |  |  |  |  |  |  |  |  | 
16 | O=C1CCC2(CC1CCSc1ccccc1)OCCO2 (centres undefined) |  | > 100 µM | > 100 µM | > 100 µM | > 100 µM | > 100 µM | > 100 µM | > 100 µM | > 100 µM |  |  |  |  |  |  |  |  | 
17 | O=c1[nH]c(=O)n(COCc2ccccc2)c2ccc([N+](=O)[O-])cc12 | > 100 µM | > 100 µM |  | > 100 µM | > 100 µM | > 100 µM | > 100 µM | > 100 µM | > 100 µM |  |  |  |  |  |  |  |  | 
18 | CCOC(=O)C(NC(=O)CC(C)C)(Nc1ccc(C(F)(F)F)cc1)C(F)(F)F (centres undefined) | > 100 µM | > 100 µM | > 100 µM | > 100 µM | > 100 µM | > 100 µM | > 100 µM |  | > 100 µM |  |  |  |  |  |  |  |  | 
19 | Nc1ccccc1NC(=O)CCCCCCC(=O)Nc1ccc2c(c1)/C(=C/c1ccc[nH]1)C(=O)N2 | > 100 µM | > 100 µM |  | > 100 µM | > 100 µM | > 100 µM | > 100 µM | > 100 µM | > 100 µM | > 100 µM |  | 1.08 µM | > 100 µM | > 100 µM | 6.13 µM | > 100 µM | 14.7 µM | 40.8 µM
20 | O=C(Nc1nnc(-c2ccccc2)o1)C(SC(=S)N1CCOCC1)c1ccccc1 (centres undefined) | > 100 µM | > 100 µM | > 100 µM | > 100 µM | > 100 µM | > 100 µM | > 100 µM |  |  |  |  |  |  |  |  |  |  | 
21 | O=C(NCCCCNCCCNC(=O)c1ccccc1)c1ccccc1 | > 100 µM | > 100 µM | > 100 µM |  | > 100 µM | > 100 µM | > 100 µM | > 100 µM | > 100 µM |  |  |  |  |  |  |  |  | 
22 | Nc1ccc(-c2nc3cc(F)ccc3s2)cc1I | 53 µM | > 66.5 µM | 33.6 µM | > 100 µM | > 100 µM | > 100 µM | 26.8 µM | 85.8 µM |  |  |  |  |  |  |  |  |  | 
23 | CC(=O)NC1C(OCc2ccccc2)OC(CO)C(O)C1OCC(=O)NC(C)C(=O)NC(CCC(=O)NCCCCCNc1c2ccccc2nc2cccc([N+](=O)[O-])c12)C(N)=O (centres undefined) | < 0.0001 µM | < 0.0001 µM |  | 0.0147 µM and 0.014 µM | < 0.0001 µM | 0.000315 µM | < 0.0001 µM |  | < 0.0001 µM |  |  |  |  |  |  |  |  | 
24 | S=c1nc2[nH]c3ccc(Br)cc3c2n[nH]1 | > 100 µM | > 100 µM |  | 79.7 µM | 38.4 µM | > 100 µM | > 100 µM | > 100 µM | > 100 µM |  |  |  |  |  |  |  |  | 
